21 compounds from PubChem BioAssay (NCI) can be followed below.

Several values for one entry are separate records, joined by “and”; a condition that tells them apart may be missing. Equal values may be shown once.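 A five-concentration, 48-hour dose response in 96-well plates underlies each endpoint, interpolated linearly between surrounding concentrations. At the GI50, growth is halved. TGI marks complete inhibition of growth.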

Holding throughout (experiment): growth of human tumour cells (NCI), 48 h
In assay [1] the test system is TK-10 renal.
The test system of assay [2] is COLO 205 colon.
Assay [3] concerns SF-295 CNS.
The subject of assay [4] is SK-MEL-5 melanoma.
The subject of assay [5] is 786-0 renal.
In assay [6] the test system is U251 CNS.
Assay [7] has as its system HT29 colon.
For assay [8], the system named is SK-MEL-28 melanoma.
In assay [9] the test system is ACHN renal.

In the case of `COc1ccc(/C=C/C(=O)c2c(-c3ccccc3)nn(C)c(=O)c2N2CC2C)cc1` (stereo not drawn), the TGI in assay [1] is more than 100 µM; in assay [2], 89.2 µM; in assay [3] it was more than 100 µM; in assay [4], more than 100 µM; in assay [5], more than 100 µM; in [6] it was 85.6 µM. Besides, the TGI in assay [7], in assay [8] and in assay [9] was more than 100 µM throughout.

Consider `O=P(CN1CCOCC1)(c1ccccc1)c1ccccc1`, for which the TGI in assay [1], in assay [2], in [3], in assay [4], in assay [5] and in assay [6] was more than 100 µM throughout. For the same compound, the TGI in assay [7], in assay [8] and in assay [9] was more than 100 µM throughout.

For `CCCCCCCCCCCC/C=C\CC[C@@H](O)[C@H](O)CC[C@H](O)[C@@H]1CC[C@@H](CCCCCCCC2=C[C@H](C)OC2=O)O1`, the GI50 was 10 µM in [1]; 7.21 µM in [2]; 291 nM in [3]; 19.8 nM in assay [4]; 15.7 µM in assay [5]; 13.7 µM in assay [6]. Further, the results for the GI50 in assay [8] and in [9] were 20.2 µM and 4.35 µM, respectively. The TGI in assay [1] is 28.6 µM; in assay [2], 8.36 µM and 22.9 µM; in [3], 15.5 µM; in assay [4] it was 4.11 µM and 4.85 µM; in assay [5], 40.3 µM; in [6] it was more than 100 µM. For the same compound, the TGI in assay [8] was 56.3 µM; in assay [9] it was 4.71 µM and 26.3 µM.

Regarding `O=C(/C=C/c1ccccc1)c1ccc(Cl)cc1Cl`, the TGI in [1] was more than 100 µM; in assay [2], 37.2 µM; in assay [3], 41.2 µM; in [4], 31.4 µM; in [5], 33.2 µM; in assay [6], 34.6 µM. Further, the figures for the TGI in assay [7] and in [9] were 32.9 µM and 34.1 µM, respectively.

`FC(F)(F)c1ccccc1C1SCc2nc3ccccc3n21` (stereo not drawn): the TGI in assay [1], in assay [2], in assay [3], in assay [5], in assay [6] and in assay [7] was more than 100 µM throughout. In addition, the TGI in [8] and in [9] was more than 100 µM each time.

For `Cc1cc(Cl)ccc1N=C1NC(=O)C(CC(=O)Nc2cccc(Cl)c2)S1` (stereo not drawn), the TGI in assay [1], in [2], in [3], in assay [4], in [5] and in assay [6] was more than 100 µM each time. Further, the TGI in assay [7], in assay [8] and in [9] was more than 100 µM throughout.

Regarding `Cc1cc(N(CCC#N)CCC#N)ccc1/C=C(\NC(=O)/C=C/c1ccccc1)C(=O)Nc1ccccc1Cl`, the TGI in assay [2], in [3], in assay [4], in [5], in [6] and in assay [7] was more than 100 µM throughout. For the same compound, the TGI in [8] and in [9] was more than 100 µM each time.

Take `COc1cc2c(oc(=O)c3c4occc4cc(OC)c23)c2cccc(O)c12`: the TGI in assay [1], in [2], in assay [3], in [4], in assay [5] and in assay [6] was more than 100 µM in each case. Also, the TGI in assay [7], in assay [8] and in [9] was more than 100 µM in each case.

Consider `O=C(N/C(=C\c1ccc([N+](=O)[O-])cc1)c1nc2ccccc2s1)c1ccccc1`, for which the TGI in assay [1] is 61.9 µM; in [2] it was more than 100 µM; in [4], 63.5 µM; in [5] it was 34.1 µM; in assay [6] it was more than 100 µM; in assay [7] it was more than 100 µM. For the same compound, the TGI in [8] was more than 100 µM; in [9], 92.1 µM.

On to `CCOc1ccc(C2=NN(CC)C(=O)C(C3C(=O)N(c4ccccc4)N=C3C)C2)cc1` (stereo not drawn), for which the TGI in [1], in assay [2], in assay [3], in assay [4], in assay [5] and in assay [6] was more than 100 µM each time. The TGI in [7], in assay [8] and in assay [9] was more than 100 µM in each case.

As for `CC1NOC(=O)C1N=Nc1cccc(Cl)c1` (stereo not drawn), the TGI in [1] was more than 100 µM; in [2], 55.7 µM; in [3], more than 100 µM; in assay [4], more than 100 µM; in assay [5], more than 100 µM; in assay [6], 60.2 µM. Besides, the TGI in assay [7] was 77 µM; in assay [8], more than 100 µM; in [9], more than 100 µM.

In the case of `COC(=O)C1=NC(=S)NC(c2ccccc2)C1c1nc2ccccc2o1` (stereo not drawn), the TGI in assay [1], in assay [2], in assay [3], in assay [5], in [6] and in [7] was more than 50 µM each time. Also, the TGI in [9] was more than 50 µM.

With `CCOc1ccc(NC(=O)CC2SC(=Nc3ccc(C)cc3)NC2=O)cc1` (stereo not drawn), the TGI in assay [1], in [2], in assay [3], in [4], in [5] and in assay [6] was more than 100 µM in each case. Besides, the TGI in [7], in assay [8] and in assay [9] was more than 100 µM throughout.

Regarding `COC(=O)Cc1cc(=O)n2c3ccccc3n(C)c2c1C#N`, the TGI in assay [1], in assay [2], in assay [3], in assay [4], in [5] and in [6] was more than 100 µM in each case. In addition, the TGI in assay [7], in [8] and in assay [9] was more than 100 µM in each case.

For `C=CCNC(=S)NNC(=O)c1c(C)nc2sccn12`, the TGI in assay [1], in [2], in assay [3], in assay [4], in [5] and in assay [6] was more than 100 µM each time. For the same compound, the TGI in [7], in assay [8] and in [9] was more than 100 µM in each case.

Regarding `COC(=O)CC1(O)C(=O)OCc2c1cc1n(c2=O)Cc2c-1nc1ccccc1c2OC` (stereo not drawn), the TGI was more than 100 µM in [1]; more than 100 µM in [2]; 17.5 µM in assay [3]; 2.74 µM in assay [4]; 0.813 µM in [5]; 2.11 µM in [6]. Further, the TGI in assay [7] is more than 100 µM; in assay [8], more than 100 µM; in [9], 1.02 µM.

In the case of `CC(=O)CCC1(c2ccccc2)OC(=O)C(C#N)=C1c1ccccc1` (stereo not drawn), the TGI in assay [1], in [2], in [3], in assay [4], in assay [5] and in assay [6] was more than 100 µM in each case. Also, the TGI in assay [7], in assay [8] and in assay [9] was more than 100 µM each time.

For `COC(=O)C(=O)C(C(=O)C(=O)Nc1ccc([N+](=O)[O-])cc1)c1nc2ccccc2[nH]c1=O` (stereo not drawn), the TGI in assay [1], in [2], in assay [4], in assay [5], in assay [6] and in assay [7] was more than 100 µM in each case. Besides, the TGI in [8] and in [9] was more than 100 µM in each case.

With `CCCC1C[C@H]2CCCCN2[C@H]2CCCN12` (stereo partly drawn), the TGI in [1] is more than 100 µM; in assay [2], more than 83.4 µM; in assay [3], more than 100 µM; in assay [4] it was more than 100 µM; in assay [5] it was more than 100 µM; in assay [6], more than 68 µM. For the same compound, the TGI in assay [7], in assay [8] and in assay [9] was more than 100 µM throughout.

Turning to `CC(C)c1ccc(O)c(Cc2cc(C(C)C)cc(Cc3cc(C(C)C)ccc3O)c2O)c1`, the TGI in assay [1] stood at 4.72 µM; in assay [2] it was 12.3 µM; in [3], 3.3 µM; in assay [4], 3.15 µM; in [5], 3.08 µM; in [6] it was 3.17 µM. For the same compound, the TGI in assay [7] is 4.28 µM; in assay [8], 3.2 µM; in [9] it was 10.8 µM.

For `COc1ccc(/C=C/C(=N\NC(=O)c2ccccc2)c2sc(Nc3ccc([N+](=O)[O-])cc3)nc2C)cc1OC`, the TGI in assay [1] is 66.5 µM; in assay [2], more than 100 µM; in assay [3], 26.5 µM; in assay [5], 26.5 µM; in [6], 18.6 µM; in assay [7] it was more than 100 µM. Moreover, the results for the TGI in [8] and in assay [9] were 47.2 µM and 41.8 µM, respectively.
